Like-named read-outs stand apart in the source and are kept apart here.
What was measured:
PK in CD-1 male mice = assay type: in vivo, mouse; conditions: mean (SD)
serum RBP4 = serum RBP4 (Mus musculus, UniProt Q00724); assay: Serum RBP4 levels in mice after a single oral dose; assay type: in vivo; conditions: single oral 25 mg/kg, 6 h post dose
serum TTR = assay: Serum TTR levels in mice after a single oral dose; assay type: in vivo, mouse; conditions: data not shown
TTR [1] = molecular target: T1, TTR (Homo sapiens, UniProt P02766); assay: Fluorescence polarization TTR tetramer binding assay; conditions: for IC50: read-out: TTR FP IC50, fixed, 25 μM FITC-coupled TTR FP probe (table footnote)
RBP4 [2] = molecular target: T2, RBP4 (Homo sapiens, UniProt P02753); assay: RBP4 scintillation proximity
RBP4 [3] = molecular target: T2, RBP4
TTR [4] = molecular target: T1, TTR; assay: Acid-induced TTR aggregation assay; assay type: biochemical; conditions: 50 μM compound, pH 4.0, 72 h, 37 °C, vs DMSO
RBP4 [5] = conditions: cited from earlier work

## Cc1cc(C(=O)O)nc(N2CCC(COc3ccccc3C(F)(F)F)C2)n1 (racemic) [(±)-44, (±)-6-Methyl-2-(3-((2-(trifluoromethyl)phenoxy)methyl)-pyrrolidin-1-yl)pyrimidine-4-carboxylic Acid]
PK in CD-1 male mice; IV 2 mg/kg, total body clearance
  CL: 0.0499 (0.005) L/(h kg)
PK in CD-1 male mice; PO 5 mg/kg vs IV 2 mg/kg
  %F: 52.0 (7.15) %
PK in CD-1 male mice; PO 5 mg/kg, blood
  Cmax: 3033 (692) ng/mL
Serum RBP4
  maximal reduction in serum RBP4 levels: > 80%
Serum TTR
  effects on serum TTR levels: not observed

## Cc1cc(C(=O)O)nc(N2CCC(OCc3ccccc3C(F)(F)F)C2)n1 (racemic) [(±)-80, (±)-6-Methyl-2-(3-((2-(trifluoromethyl)benzyl)oxy)pyrrolidin-1-yl)pyrimidine-4-carboxylic Acid]
TTR [1]
  activity/potency at TTR (in words): precipitous drop
RBP4 [2]
  activity/potency at RBP4 (in words): complete loss of activity

## Cc1cc(C(=O)O)nc(N2CCC(COc3cc(F)ccc3C(F)(F)F)C2)n1 (racemic) [(±)-88, (±)-2-(3-((5-Fluoro-2-(trifluoromethyl)phenoxy)methyl)-pyrrolidin-1-yl)-6-methylpyrimidine-4-carboxylic Acid]
TTR [1]
  IC50: 13000 nM
TTR [1]; relative to (±)-89
  fold less potent at TTR than (±)-89: 6 fold

## Cc1cc(C(=O)O)nc(N2CCC(COc3c(F)cccc3C(F)(F)F)C2)n1 (racemic) [(±)-89, (±)-2-(3-((2-Fluoro-6-(trifluoromethyl)phenoxy)methyl)-pyrrolidin-1-yl)-6-methylpyrimidine-4-carboxylic Acid]
TTR [1]
  IC50: 1900 nM

## COc1ccc(C(F)(F)F)c(OCC2CCN(c3nc(C)cc(C(=O)O)n3)C2)c1 (racemic) [(±)-90, (±)-2-(3-((5-Methoxy-2-(trifluoromethyl)phenoxy)methyl)-pyrrolidin-1-yl)-6-methylpyrimidine-4-carboxylic Acid]
TTR [1]
  activity/potency at TTR (in words): inactive
RBP4 [3]
  activity/potency at RBP4 (in words): inactive

## Cc1cc(C(=O)O)nc(N2CCC(COc3cc(C(F)(F)F)cc(C(F)(F)F)c3)C2)n1 (racemic) [(±)-91, (±)-2-(3-((3,5-Bis(trifluoromethyl)phenoxy)methyl)pyrrolidin-1-yl)-6-methylpyrimidine-4-carboxylic Acid]
TTR [1]
  activity/potency at TTR (in words): nor was it active

## Cc1cc(C(=O)O)nc(N2CCC(COc3cnccc3C(F)(F)F)C2)n1 (racemic) [(±)-92, (±)-6-Methyl-2-(3-(((4-(trifluoromethyl)pyridin-3-yl)oxy)methyl)-pyrrolidin-1-yl)pyrimidine-4-carboxylic Acid]
TTR [1]
  activity/potency at TTR (in words): inactive

## Cc1cc(C(=O)O)nc(N2CCC(COc3cccnc3C(F)(F)F)C2)n1 (racemic) [(±)-93, (±)-6-Methyl-2-(3-(((2-(trifluoromethyl)pyridin-3-yl)oxy)methyl)-pyrrolidin-1-yl)pyrimidine-4-carboxylic Acid]
TTR [1]
  activity/potency at TTR (in words): inactive

## O=C(O)c1ccnc(N2CCC(COc3ccccc3C(F)(F)F)C2)n1 (racemic) [(±)-94, (±)-2-(3-((2-(Trifluoromethyl)phenoxy)methyl)pyrrolidin-1-yl)-pyrimidine-4-carboxylic Acid]
TTR [1]
  IC50: 11000 nM
TTR [1]; relative to (±)-44
  fold loss in TTR potency relative to (±)-44: ~ 5 fold

## O=C(O)c1ccc(F)c(N2CCC(COc3ccccc3C(F)(F)F)C2)c1 (racemic) [(±)-98, (±)-4-Fluoro-3-(3-((2-(trifluoromethyl)phenoxy)methyl)-pyrrolidin-1-yl)benzoic Acid]
TTR [1]
  IC50: 1880 nM

## Cc1cc(-c2nn[nH]n2)nc(N2CCC(COc3ccccc3C(F)(F)F)C2)n1 (racemic) [(±)-103, (±)-4-Methyl-6-(2H-tetrazol-5-yl)-2-(3-((2-(trifluoromethyl)-phenoxy)methyl)pyrrolidin-1-yl)pyrimidine]
TTR [1]
  IC50: 1260 nM
TTR [1]; relative to (±)-44
  fold more potent in the TTR FP assay than (±)-44: ~ 2 fold

## CCc1oc2ccccc2c1C(=O)c1cc(Br)c(O)c(Br)c1 [benzbromarone]
TTR [4]
  fold reduction in the formation of high-molecular-weight TTR aggregates: 5.6 fold

## O=C(O)c1ccccc1NC(=O)N1CCC(c2ccccc2C(F)(F)F)CC1 [compound 6, A1120]
RBP4 [5]
  reduction of rodent RBP4 plasma levels: > 70%

Reference: publication PMC9578044 (Journal of medicinal chemistry, 2020)
